pKd: −log10 of the molar value. Where a SMILES comes first, the peptide text is derived from it. Bridges are numbered along the chain shown (N, C = ends). [ ]: non-standard residue; d: D form. The star is where a group is joined. X2 = O=C(O)c1cc(C(=O)*)ccc1-c1c2ccc(=O)cc-2oc2cc(O)ccc12; PEG12 = NCCOCCOCCOCCOCCOCCOCCOCCOCCOCCOCCOCCOCCC(=O)O; NMeY = CN[C@@H](Cc1ccc(O)cc1)C(=O)O; NMeH = CN[C@@H](Cc1c[nH]cn1)C(=O)O
Biological target: transferrin receptor (hTfR) (Homo sapiens, UniProt P02786)
Assay: Intermolecular interaction evaluation test between transferrin receptor (hTfR) and peptide by surface plasmon resonance (SPR)
Assay type: binding
Conditions: SPR; linker and payload (FITC, VivoTag) conjugates; read-out: KD
Procedure: For each of the various synthesized peptides, the intermolecular interaction of the peptide with the transferrin receptor (hTfR) was tested by surface plasmon resonance (SPR) according to the following method. The specific test method is as follows.
An NTA sensor chip (Global Life Sciences Technologies Japan) was inserted in a Biacore T200 (Global Life Sciences Technologies Japan) and a prime operation was performed 3 times with a running buffer: 10 mM HEPES pH 8.0 (Nacalai Tesque), 150 mM NaCl (Nacalai Tesque), 0.05% Tween 20 (Nacalai Tesque), 0.1% BSA (Sigma-Aldrich), 1.0% DMSO (FUJIFILM Wako Pure Chemical) to create an Equilibration state at a flow rate of 30 µL/min. After reacting with 350 mM EDTA solution for 60 seconds at a flow rate of 10 µL/min then reacting with 0.5 mM NiCl2 solution (Kishida Chemical) for 60 seconds at a flow rate of 10 µL/min, the NTA sensor chip was washed with 3 mM EDTA solution (Nacalai Tesque) for 60 seconds at a flow rate of 10 µL/min. After mixing 50 µL each of 60 mM EDC solution (Global Life Sciences Technologies Japan) and 650 mM NHS solution (Global Life Sciences Technologies Japan), the mixture was reacted for 420 seconds at a flow rate of 10 µL/min. By diluting with the running buffer, 150 µL of 3.2 µM hTfR solution was prepared and used for reaction for 600 seconds at a flow rate of 10 µL/min, thereby immobilizing hTfR on the NTA sensor chip. After immobilization, capping was performed by reacting with 1.0 M ethanolamine aqueous solution (Global Life Sciences Technologies Japan) for 420 seconds at a flow rate of 10 µL/min. A peptide dissolution liquid prepared to 10 mM in the DMSO solution was diluted with the running buffer to a final concentration of 10 µM so as to become the peptide dissolution liquid, then peptide solutions of 100 nM, 50 nM, 25 nM, 10 nM and 5 nM were prepared. Kinetics of the peptide to hTfR was acquired by SPR measurement using the above-mentioned samples. Single-cycle kinetics was used as a kinetic evaluation model and curve fitting was performed using Biacore T200 Evaluation Software Version 3.0 (Global Life Sciences Technologies Japan). An obtained sensorgram was subjected to curve fitting using the least-squares method, and the binding of the peptide to hTfR was evaluated by obtaining KD values. […] A chemical structure of hTfR No. 894 is as follows.
The variant peptides were synthesized according to Example 1 unless otherwise stated in Example 9 or 10. The linker-added peptides were synthesized according to Example 1, except that Fmoc-NH-SAL-PEG resin (Watanabe Chemical Industries) was used as a resin for the peptide synthesis when the linker was PEG. The peptide, to which a peptide, a fatty acid, PEG, or a conjugate thereof is added as a linker, was also synthesized according to Example 1, unless otherwise stated in Example 9 or 10.

Sequence of transferrin receptor (hTfR) (P02786 whole entry): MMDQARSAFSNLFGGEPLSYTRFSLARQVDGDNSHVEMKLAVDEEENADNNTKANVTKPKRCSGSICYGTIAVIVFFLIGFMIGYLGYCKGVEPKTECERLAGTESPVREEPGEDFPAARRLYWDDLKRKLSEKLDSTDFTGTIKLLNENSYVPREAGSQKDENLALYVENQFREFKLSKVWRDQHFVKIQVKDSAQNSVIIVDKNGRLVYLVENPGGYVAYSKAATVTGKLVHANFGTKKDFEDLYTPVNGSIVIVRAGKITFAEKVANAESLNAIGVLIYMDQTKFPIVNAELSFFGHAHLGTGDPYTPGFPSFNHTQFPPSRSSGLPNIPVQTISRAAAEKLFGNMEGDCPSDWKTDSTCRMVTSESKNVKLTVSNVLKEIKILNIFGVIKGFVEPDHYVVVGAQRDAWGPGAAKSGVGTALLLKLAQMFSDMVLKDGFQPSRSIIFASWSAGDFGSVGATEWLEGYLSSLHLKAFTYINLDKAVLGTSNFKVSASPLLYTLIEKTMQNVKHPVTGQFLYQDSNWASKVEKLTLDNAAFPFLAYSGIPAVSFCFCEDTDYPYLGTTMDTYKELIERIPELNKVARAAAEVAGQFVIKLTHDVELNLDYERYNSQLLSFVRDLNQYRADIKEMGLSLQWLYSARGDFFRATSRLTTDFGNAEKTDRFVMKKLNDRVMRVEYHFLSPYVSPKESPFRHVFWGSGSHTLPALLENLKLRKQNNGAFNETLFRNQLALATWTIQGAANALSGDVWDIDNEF

SMILES | pKd
CC[C@H](C)[C@@H]1NC(=O)[C@H](Cc2ccc(O)cc2)NC(=O)[C@H](Cc2ccc(O)cc2)NC(=O)[C@H](CC(N)=O)NC(=O)[C@H](Cc2c[nH]c3ccccc23)NC(=O)[C@H](C(C)C)NC(=O)[C@H](Cc2ccccc2)NC(=O)[C@H](C(C)C)NC(=O)[C@H](C)NC(=O)CSC[C@@H](C(=O)NCCOCCOCCOCCOCCOCCOCCOCCOCCOCCOCCOCCOCCC(=O)N[C@@H](CCCCNC(=O)c2ccc(-c3c4ccc(=O)cc-4oc4cc(O)ccc34)c(C(=O)O)c2)C(N)=O)NC(=O)[C@H](CCCNC(=N)N)NC(=O)[C@H](Cc2ccccc2)NC(=O)[C@H](CCCNC(=N)N)NC(=O)[C@H](CC(=O)O)NC(=O)[C@H]([C@@H](C)CC)NC1=O [compound 148] ({CH2CO}-AVFVWNYYIIDRFRC[PEG12]K(X2)-NH2; thioether N-15) | 7.00 to 9.00
CC[C@H](C)[C@@H]1NC(=O)[C@H](Cc2ccc(O)cc2)NC(=O)[C@H](Cc2ccc(O)cc2)NC(=O)[C@H](CC(N)=O)NC(=O)[C@H](Cc2c[nH]c3ccccc23)NC(=O)[C@H](C(C)C)NC(=O)[C@H](Cc2ccccc2)NC(=O)[C@H](C(C)C)NC(=O)[C@H](C)NC(=O)CSC[C@@H](C(=O)NCCOCCOCCOCCOCCOCCOCCOCCOCCOCCOCCOCCOCCC(=O)N[C@@H](CCCCNC(=O)c2ccc(-c3c4ccc(=O)cc-4oc4cc(O)ccc34)c(C(=O)O)c2)C(N)=O)NC(=O)[C@H](Cc2c[nH]cn2)N(C)C(=O)[C@H](CO)NC(=O)[C@H](CCCNC(=N)N)NC(=O)[C@H](Cc2ccccc2)NC(=O)[C@H](CCCNC(=N)N)NC(=O)[C@H](CC(=O)O)NC(=O)[C@H]([C@@H](C)CC)NC1=O [compound 149] ({CH2CO}-AVFVWNYYIIDRFRS[NMeH]C[PEG12]K(X2)-NH2; thioether N-17) | 7.00 to 9.00
CC[C@H](C)[C@@H]1NC(=O)[C@H](Cc2ccc(O)cc2)NC(=O)[C@H](Cc2ccc(O)cc2)NC(=O)[C@H](CC(N)=O)NC(=O)[C@H](Cc2c[nH]c3ccccc23)NC(=O)[C@H](C(C)C)NC(=O)[C@H](Cc2ccccc2)NC(=O)[C@H](C(C)C)NC(=O)[C@H](C)NC(=O)CSC[C@@H](C(=O)NCCOCCOCCOCCOCCOCCOCCOCCOCCOCCOCCOCCOCCC(=O)N[C@@H](CCCCNC(=O)c2ccc(-c3c4ccc(=O)cc-4oc4cc(O)ccc34)c(C(=O)O)c2)C(N)=O)NC(=O)[C@H](Cc2ccc(O)cc2)N(C)C(=O)[C@H](CO)NC(=O)[C@H](CCCNC(=N)N)NC(=O)[C@H](Cc2ccccc2)NC(=O)[C@H](CCCNC(=N)N)NC(=O)[C@H](CC(=O)O)NC(=O)[C@H]([C@@H](C)CC)NC1=O [compound 150] ({CH2CO}-AVFVWNYYIIDRFRS[NMeY]C[PEG12]K(X2)-NH2; thioether N-17) | 7.00 to 9.00
CC[C@H](C)[C@@H]1NC(=O)[C@H](Cc2ccc(O)cc2)NC(=O)[C@H](Cc2ccc(O)cc2)NC(=O)[C@H](CC(N)=O)NC(=O)[C@H](Cc2c[nH]c3ccccc23)NC(=O)[C@H](C(C)C)NC(=O)[C@H](Cc2ccccc2)NC(=O)[C@H](C(C)C)NC(=O)[C@H](C)NC(=O)CSC[C@@H](C(=O)NCCOCCOCCOCCOCCOCCOCCOCCOCCOCCOCCOCCOCCC(=O)N[C@@H](CCCCNC(=O)c2ccc(-c3c4ccc(=O)cc-4oc4cc(O)ccc34)c(C(=O)O)c2)C(N)=O)NC(=O)[C@H](CC(N)=O)NC(=O)[C@@H]2CCCN2C(=O)[C@H](C(C)C)NC(=O)[C@H](CC(N)=O)NC(=O)[C@H](CCCNC(=N)N)NC(=O)CNC(=O)[C@H](C(C)C)NC1=O [compound 152] ({CH2CO}-AVFVWNYYIVGRNVPNC[PEG12]K(X2)-NH2; thioether N-17) | > 9.00
CC[C@H](C)[C@@H]1NC(=O)[C@H](CCCNC(=N)N)NC(=O)[C@H](CC(N)=O)NC(=O)[C@H](C)NC(=O)CSC[C@@H](C(=O)NCCOCCOCCOCCOCCOCCOCCOCCOCCOCCOCCOCCOCCC(=O)N[C@@H](CCCCNC(=O)c2ccc(-c3c4ccc(=O)cc-4oc4cc(O)ccc34)c(C(=O)O)c2)C(N)=O)NC(=O)[C@H](Cc2ccc(O)cc2)N(C)C(=O)[C@H](CCCNC(=N)N)NC(=O)[C@@H]2CCCN2C(=O)[C@H]([C@@H](C)CC)NC(=O)[C@H]([C@@H](C)CC)NC(=O)[C@H](Cc2ccc(O)cc2)NC(=O)[C@H](Cc2ccc(O)cc2)NC(=O)[C@H](CC(N)=O)NC(=O)[C@H](Cc2c[nH]c3ccccc23)NC(=O)[C@H](C(C)C)NC(=O)[C@H](Cc2ccccc2)NC(=O)[C@H](C(C)C)NC1=O [compound 153] ({CH2CO}-ANRIVFVWNYYIIPR[NMeY]C[PEG12]K(X2)-NH2; thioether N-17) | 7.00 to 9.00
CC[C@H](C)[C@@H]1NC(=O)[C@H](CCCNC(=N)N)NC(=O)[C@H](CC(N)=O)NC(=O)[C@H](C)NC(=O)CSC[C@@H](C(=O)NCCOCCOCCOCCOCCOCCOCCOCCOCCOCCOCCOCCOCCC(=O)N[C@@H](CCCCNC(=O)c2ccc(-c3c4ccc(=O)cc-4oc4cc(O)ccc34)c(C(=O)O)c2)C(N)=O)NC(=O)[C@H](Cc2c[nH]cn2)N(C)C(=O)[C@H](CCCNC(=N)N)NC(=O)[C@@H]2CCCN2C(=O)[C@H]([C@@H](C)CC)NC(=O)[C@H]([C@@H](C)CC)NC(=O)[C@H](Cc2ccc(O)cc2)NC(=O)[C@H](Cc2ccc(O)cc2)NC(=O)[C@H](CC(N)=O)NC(=O)[C@H](Cc2c[nH]c3ccccc23)NC(=O)[C@H](C(C)C)NC(=O)[C@H](Cc2ccccc2)NC(=O)[C@H](C(C)C)NC1=O [compound 154] ({CH2CO}-ANRIVFVWNYYIIPR[NMeH]C[PEG12]K(X2)-NH2; thioether N-17) | 7.00 to 9.00
CC[C@H](C)[C@@H]1NC(=O)[C@H](Cc2ccc(O)cc2)NC(=O)[C@H](Cc2ccc(O)cc2)NC(=O)[C@H](CC(N)=O)NC(=O)[C@H](Cc2c[nH]c3ccccc23)NC(=O)[C@H](C(C)C)NC(=O)[C@H](Cc2ccccc2)NC(=O)[C@H](C(C)C)NC(=O)[C@H](C)NC(=O)[C@H](CO)NC(=O)[C@H](C)NC(=O)CSC[C@@H](C(=O)NCCOCCOCCOCCOCCOCCOCCOCCOCCOCCOCCOCCOCCC(=O)N[C@@H](CCCCNC(=O)c2ccc(-c3c4ccc(=O)cc-4oc4cc(O)ccc34)c(C(=O)O)c2)C(N)=O)NC(=O)[C@H](C)NC(=O)[C@H](Cc2c[nH]c3ccccc23)NC(=O)[C@H](CCCNC(=N)N)NC(=O)[C@H](CC(N)=O)NC(=O)[C@H]([C@@H](C)CC)NC1=O [compound 155] ({CH2CO}-ASAVFVWNYYIINRWAC[PEG12]K(X2)-NH2; thioether N-17) | 7.00 to 9.00
CC[C@H](C)[C@@H]1NC(=O)[C@H](Cc2ccc(O)cc2)NC(=O)[C@H](Cc2ccc(O)cc2)NC(=O)[C@H](CC(N)=O)NC(=O)[C@H](Cc2c[nH]c3ccccc23)NC(=O)[C@H](C(C)C)NC(=O)[C@H](Cc2c[nH]c3ccccc23)NC(=O)[C@H](C(C)C)NC(=O)[C@H]([C@@H](C)O)NC(=O)[C@H](CCCNC(=N)N)NC(=O)[C@H](CO)NC(=O)[C@H](CC(N)=O)NC(=O)[C@H](C)NC(=O)CSC[C@@H](C(=O)NCCOCCOCCOCCOCCOCCOCCOCCOCCOCCOCCOCCOCCC(=O)N[C@@H](CCCCNC(=O)c2ccc(-c3c4ccc(=O)cc-4oc4cc(O)ccc34)c(C(=O)O)c2)C(N)=O)NC(=O)[C@H](CCCNC(=N)N)NC(=O)[C@H]([C@@H](C)O)NC(=O)[C@H](C(C)C)NC1=O [compound 157] ({CH2CO}-ANSRTVWVWNYYIVTRC[PEG12]K(X2)-NH2; thioether N-17) | 7.00 to 9.00
CC[C@H](C)[C@@H]1NC(=O)[C@H](Cc2ccc(O)cc2)NC(=O)[C@H](Cc2ccc(O)cc2)NC(=O)[C@H](CC(N)=O)NC(=O)[C@H](Cc2c[nH]c3ccccc23)NC(=O)[C@H](C(C)C)NC(=O)[C@H](Cc2ccccc2)NC(=O)[C@H](C(C)C)NC(=O)[C@H](C)NC(=O)CSC[C@@H](C(=O)NCCOCCOCCOCCOCCC(=O)N[C@@H](CNC(=O)c2ccc(-c3c4ccc(=O)cc-4oc4cc(O)ccc34)c(C(=O)O)c2)C(N)=O)NC(=O)[C@H](Cc2ccc(O)cc2)N(C)C(=O)[C@H](Cc2ccc(O)cc2)NC(=O)[C@H](CCCNC(=N)N)NC(=O)[C@H](CCCNC(=N)N)NC(=O)[C@H]([C@@H](C)CC)NC1=O [compound 159] | 7.00 to 9.00
CC[C@H](C)[C@@H]1NC(=O)[C@H](Cc2ccc(O)cc2)NC(=O)[C@H](Cc2ccc(O)cc2)NC(=O)[C@H](CC(N)=O)NC(=O)[C@H](Cc2c[nH]c3ccccc23)NC(=O)[C@H](C(C)C)NC(=O)[C@H](Cc2ccccc2)NC(=O)[C@H](C(C)C)NC(=O)[C@H](C)NC(=O)CSC[C@H](C(=O)NCCOCCOCCOCCOCCC(=O)N[C@@H](CNC(=O)c2ccc(-c3c4ccc(=O)cc-4oc4cc(O)ccc34)c(C(=O)O)c2)C(N)=O)NC(=O)[C@H](Cc2ccc(O)cc2)N(C)C(=O)[C@H](Cc2ccc(O)cc2)NC(=O)[C@H](CCCNC(=N)N)NC(=O)[C@H](CCCNC(=N)N)NC(=O)[C@H]([C@@H](C)CC)NC1=O [compound 160] | 7.00 to 9.00
